Measured values taken from patent US11541029B2, “High penetration compositions and their applications” (Techfields Pharma Co., Ltd., priority 2008, dated 2023).

System: carotid artery thrombosis
Assay: Thrombosis/stroke induced by electrical stimulation of carotid artery
Type: in vivo, rats (Spragu Dawley)
Experimental: Thrombosis was induced by electrical stimulation (1 mA for 3 minutes) of the carotid artery in rats by using a thrombosis formation instrument (YLS-14A, Shandong Academy of Medical Sciences, Shandong, China). […] In group B, 100 mg/kg of diethylaminoethyl acetylsalicylate.HCl salt (10% in water) was applied to the shaved back skin of the rats (˜9 cm^2, fur was cut off) 2 hour before the operation and 1 hour after the operation, then 50 mg/kg of the HPC was applied to the back of the rats twice per day. In group C, 50 mg/kg of diethylaminoethyl acetylsalicylate.HCl was applied to the back of the rats twice per day starting from 24 hours after the operation. The recovery of motor functions of rats was evaluated every day.

[1] = group B: 100 mg/kg 2 hour before and 1 hour after operation, then 50 mg/kg twice per day
[2] = group C: 50 mg/kg twice per day starting 24 hours after the operation

Structure (SMILES): CCN(CC)CCOC(=O)c1ccccc1OC(C)=O.Cl [P-1, diethylaminoethyl acetylsalicylate.HCl salt]
- Stroke-free rats (2 hours) [1]: 8/10
- Stroke-free rats (1 day) [1]: 9/10
- Stroke-free rats (7 days) [1]: 10/10
- Stroke-free rats (3 hrs) [2]: 0/10
- Stroke-free rats (2 day) [2]: 4/10
- Stroke-free rats (7 day) [2]: 9/10
- Stroke-free rats (14 days) [2]: 10/10
- Weight Loss (3 days) [2]: −13 +/− 7%
- Weight Loss (7 days) [2]: −7 +/− 4%
- Weight Loss (14 days) [2]: −4 +/− 2%
- bleeding problem (post-stroke treatment): without bleeding problem
